Test results: patent US8609852B2, “Thiazolyl mGluR5 antagonists and methods for their use” (Merck Sharp & Dohme Corp., priority 2004, dated 2013)
Structures can show the parent of a compound that is named as a salt.

Columns and labels:
[1] = biological target: hmGluR5a receptor (Homo sapiens (Human), UniProt P41594); assay: Calcium Flux Assay; assay type: cell-based; settings: hmGluR5a/L38-20 cells, glutamate-evoked [Ca2+]i
Method: The activity of compounds was examined against the hmGluR5a receptor stably expressed in mouse fibroblast Ltk− cells (the hmGluR5a/L38-20 cell line). See generally Daggett et al., Neuropharmacology 34:871-886 (1995). Receptor activity was detected by changes in intracellular calcium ([Ca^2+]i) measured using the fluorescent calcium-sensitive dye, fura-2. hmGluR5a/L38-20 cells were plated onto 96-well plates, and loaded with 3 µM fura-2 for 1 h. Unincorporated dye was washed from the cells, and the cell plate was transferred to a custom-built 96-channel fluorimeter (SIBIA-SAIC, La Jolla, Calif.) which is integrated into a fully automated plate handling and liquid delivery system. Cells were excited at 350 and 385 nm with a xenon source combined with optical filters. Emitted light was collected from the sample through a dichroic mirror and a 510 nm interference filter and directed into a cooled CCD camera (Princeton Instruments). Image pairs were captured approximately every 1 s, and ratio images were generated after background subtraction. After a basal reading of 20 s, an EC80 concentration of glutamate ([…]) was added to the well, and the response evaluated for another 60 s. The glutamate-evoked increase in [Ca^2+]i in the presence of the screening compound was compared to the response of glutamate alone (the positive control).

[2] = biological target: metabotropic glutamate receptor subtype 5 (Rattus norvegicus (Rat), UniProt P31424); assay: [3H]-mGluR5 Antagonist Binding to Rodent Brain Membranes
metabotropic glutamate receptor subtype 5, sequence (P31424 21-1203): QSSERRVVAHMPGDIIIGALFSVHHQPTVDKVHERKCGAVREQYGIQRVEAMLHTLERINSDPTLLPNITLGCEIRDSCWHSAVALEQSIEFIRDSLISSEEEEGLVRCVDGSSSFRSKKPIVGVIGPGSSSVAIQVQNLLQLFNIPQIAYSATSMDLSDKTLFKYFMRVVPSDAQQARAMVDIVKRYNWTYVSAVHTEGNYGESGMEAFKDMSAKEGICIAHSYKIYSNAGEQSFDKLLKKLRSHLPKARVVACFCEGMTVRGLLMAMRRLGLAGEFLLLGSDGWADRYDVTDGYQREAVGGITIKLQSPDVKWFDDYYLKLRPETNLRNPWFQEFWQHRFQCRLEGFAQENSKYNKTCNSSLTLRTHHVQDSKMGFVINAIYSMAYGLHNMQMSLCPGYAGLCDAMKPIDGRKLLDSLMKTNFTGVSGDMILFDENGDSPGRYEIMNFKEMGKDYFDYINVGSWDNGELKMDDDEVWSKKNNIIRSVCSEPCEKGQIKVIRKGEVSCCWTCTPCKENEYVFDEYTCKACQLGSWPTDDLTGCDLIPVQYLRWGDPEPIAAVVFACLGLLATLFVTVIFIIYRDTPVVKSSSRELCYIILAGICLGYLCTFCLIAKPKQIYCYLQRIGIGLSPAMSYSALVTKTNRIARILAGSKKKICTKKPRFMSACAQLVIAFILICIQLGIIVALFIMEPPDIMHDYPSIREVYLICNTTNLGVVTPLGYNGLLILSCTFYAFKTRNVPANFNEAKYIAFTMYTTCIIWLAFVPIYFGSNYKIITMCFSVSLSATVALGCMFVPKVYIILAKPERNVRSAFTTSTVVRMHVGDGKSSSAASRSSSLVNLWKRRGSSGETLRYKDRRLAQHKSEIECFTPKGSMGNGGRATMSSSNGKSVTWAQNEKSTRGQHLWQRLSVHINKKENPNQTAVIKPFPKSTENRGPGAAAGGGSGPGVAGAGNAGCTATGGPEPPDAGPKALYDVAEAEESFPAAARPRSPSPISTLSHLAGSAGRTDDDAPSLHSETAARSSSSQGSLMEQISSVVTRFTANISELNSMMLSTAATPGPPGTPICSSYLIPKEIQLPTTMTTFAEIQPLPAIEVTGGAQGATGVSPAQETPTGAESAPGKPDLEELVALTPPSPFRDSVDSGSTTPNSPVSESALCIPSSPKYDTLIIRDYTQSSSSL
Method: In accordance with Anderson J J, Rao S P, Rowe B, Giracello D R, Holtz G, Chapman D F, Tehrani L, Bradbury M J, Cosford N D, Varney M A, [^3H]Methoxymethyl-3-[(2-methyl-1,3-thiazol-4-yl)ethynyl]pyridine binding to metabotropic glutamate receptor subtype 5 in rodent brain: in vitro and in vivo characterization. J Pharmacol Exp Ther. 2002 December; 303 (3):1044-51, membranes were prepared (as described in Ransom R W and Stec N L (1988) Cooperative modulation of [^3H]MK-801 binding to the N-methyl-D-aspartate receptor-ion channel complex by L-glutamate, glycine, and polyamines. J Neurochem 51:830-836) using whole rat brain, or mGlu5^+/+ or mGlu5^−/− whole mouse brain.
Binding assays were performed as described in Schaffhauser H, Richards J G, Cartmell J, Chaboz S, Kemp J A, Klingelschmidt A, Messer J, Stadler H, Woltering T and Mutel V (1998) In vitro binding characteristics of a new selective group II metabotropic glutamate receptor radioligand, [^3H]LY354740, in rat brain. Mol Pharmacol 53:228-233) at room temperature with slight modifications. Briefly, membranes were thawed and washed once with assay buffer (50 mM HEPES, 2 mM MgCl2, pH 7.4), followed by centrifugation at 40,000×g for 20 min. The pellet was resuspended in assay buffer and briefly homogenized with a Polytron.
For protein linearity experiments, increasing concentrations of membrane protein were added to 96-well plates in triplicate and binding was initiated by addition of 20 nM [^3H]methoxymethyl-3-[(2-methyl-1,3-thiazol-4-yl)ethynyl]pyridine. The assay was incubated for 2 h and non-specific binding was determined using 10 μM MPEP. The binding was terminated by rapid filtration through glass-fiber filters (Unifilter-96 GF/B plate, Packard) using a 96-well plate Brandel cell harvester. Following addition of scintillant, the radioactivity was determined by liquid scintillation spectrometry. Protein measurements were performed by BioRad-DC Protein assay using bovine serum albumin as the standard.
Saturation binding experiments were performed in triplicate with increasing concentrations of [^3H]methoxymethyl-3-[(2-methyl-1,3-thiazol-4-yl)ethynyl]pyridine (1 pM to 100 nM). The time course of association was measured by the addition of 10 nM [^3H]methoxymethyl-3-[(2-methyl-1,3-thiazol-4-yl)ethynyl]pyridine to the membranes at different time points (0-240 min), followed by filtration. Dissociation was measured by the addition of 100 μM unlabeled methoxymethyl-3-[(2-methyl-1,3-thiazol-4-yl)ethynyl]pyridine at different time points to membranes previously incubated for 3 h with 10 nM [^3H]methoxymethyl-3-[(2-methyl-1,3-thiazol-4-yl)ethynyl]pyridine. For competition experiments, 100 μg membrane protein and 10 nM [^3H]methoxymethyl-3-[(2-methyl-1,3-thiazol-4-yl)ethynyl]pyridine was added to wells containing increasing concentration of the test compound in duplicate (methoxymethyl-3-[(2-methyl-1,3-thiazol-4-yl)ethynyl]pyridine or MPEP). [^3H]-3-Methoxy-5-(pyridin-2-ylethynyl)pyridine may also be used as the radioligand in the procedure described above. (See, Cosford, N. D. P.; Roppe, J.; Tehrani, L.; Seiders, T. J.; Schweiger, E. J. et al. [3H]-Methoxymethyl-MTEP and [3H]-methoxy-PEPy): Potent and selective radioligands for the Metabotropic Glutamate Subtype 5 (mGlu5) Receptor. Bioorg. Med. Chem. Lett. 2003, 13, 351-354.)

hmGluR5a receptor, sequence (P41594 other isoform, or with tags, fused parts or gaps): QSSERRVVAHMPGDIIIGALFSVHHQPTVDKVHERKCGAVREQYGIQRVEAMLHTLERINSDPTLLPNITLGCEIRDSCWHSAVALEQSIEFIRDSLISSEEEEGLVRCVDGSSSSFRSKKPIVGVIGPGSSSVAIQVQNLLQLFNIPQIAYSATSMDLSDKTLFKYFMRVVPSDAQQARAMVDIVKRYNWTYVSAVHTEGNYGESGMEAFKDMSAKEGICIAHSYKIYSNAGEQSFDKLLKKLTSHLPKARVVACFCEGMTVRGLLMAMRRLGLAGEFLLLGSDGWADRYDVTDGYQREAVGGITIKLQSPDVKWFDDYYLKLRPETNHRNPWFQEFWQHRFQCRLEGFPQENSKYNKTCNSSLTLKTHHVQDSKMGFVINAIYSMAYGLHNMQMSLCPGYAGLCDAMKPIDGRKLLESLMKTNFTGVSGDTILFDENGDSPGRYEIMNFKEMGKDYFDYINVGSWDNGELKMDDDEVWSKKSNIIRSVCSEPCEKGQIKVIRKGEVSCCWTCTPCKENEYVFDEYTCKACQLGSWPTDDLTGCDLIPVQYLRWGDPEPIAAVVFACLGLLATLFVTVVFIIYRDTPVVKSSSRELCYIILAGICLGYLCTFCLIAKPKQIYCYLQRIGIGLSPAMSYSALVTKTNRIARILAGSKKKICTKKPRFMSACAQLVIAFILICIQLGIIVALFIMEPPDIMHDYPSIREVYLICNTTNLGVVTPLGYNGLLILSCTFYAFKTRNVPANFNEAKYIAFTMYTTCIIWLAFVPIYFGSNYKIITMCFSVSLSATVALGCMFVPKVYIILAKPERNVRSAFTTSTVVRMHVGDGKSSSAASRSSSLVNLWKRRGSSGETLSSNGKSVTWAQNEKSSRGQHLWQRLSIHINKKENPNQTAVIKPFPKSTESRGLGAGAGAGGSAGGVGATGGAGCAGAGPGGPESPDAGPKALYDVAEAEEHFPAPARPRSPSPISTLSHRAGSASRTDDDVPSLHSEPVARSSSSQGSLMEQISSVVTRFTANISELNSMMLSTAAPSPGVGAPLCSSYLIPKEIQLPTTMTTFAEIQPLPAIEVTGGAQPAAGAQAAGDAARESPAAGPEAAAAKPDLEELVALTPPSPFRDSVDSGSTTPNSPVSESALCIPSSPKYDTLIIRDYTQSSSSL

Row | IC50 [1] [nM] | Ki [2] [nM] | Compound
1 | 16 | 9 | Cc1nc(C#Cc2cnc(N3CCCCC3CO)nc2)cs1 (stereo not drawn) [Example 107]
2 | 11 | 0.65 | Cc1nc(C#Cc2cncc(-c3cccc(Cl)c3)c2)cs1 [Example 43]
3 | 0.1 | 2 | Cc1nc(C#Cc2ccc(OC(C)C)nc2)cs1 [Example 26, 2-isopropoxy-5-[(2-methyl-1,3-thiazol-4-yl)ethynyl]pyridinium trifluoroacetate]
4 | 4.4 | 1.2 | COc1ccc(F)cc1-c1ccc(C#Cc2csc(C)n2)cn1 [Example 6, 2-(5-fluoro-2-methoxyphenyl)-5-[(2-methyl-1,3-thiazol-4-yl)ethynyl]pyridine]
5 | 6 | 8 | Cc1nc(C#Cc2cncc(-c3ccc(CO)cc3)c2)cs1 [Example 65]
6 | 1.5 | 1.5 | Cc1nc(C#Cc2cnc(N3CCCC3C)nc2)cs1 (stereo not drawn) [Example 21, 2-(2-methylpyrrolidin-1-yl)-5-[(2-methyl-1,3-thiazol-4-yl)ethynyl]pyrimidine]
7 | 2 | 1 | Cc1nc(C#Cc2cncc(-c3cccc(C#N)c3)c2)cs1 [Example 85]
8 | 2.2 | – | Cc1nc(C#Cc2ccc(-c3ccccc3C#N)nc2)cs1 [Example 4, 2-{5-[(2-methyl-1,3-thiazol-4-yl)ethynyl]pyridin-2-yl}benzonitrile]
9 | 6.3 | 1 | Cc1nc(C#Cc2ccc(-c3ccccc3C)nc2)cs1 [Example 5, 2-(2-methylphenyl)-5-[(2-methyl-1,3-thiazol-4-yl)ethynyl]pyridine]
10 | 5 | 14 | Cc1nc(C#Cc2ccc(N3CCCC3)nc2)cs1 [Example 69]
11 | 4 | 8 | CCN(CC)c1ncc(C#Cc2csc(C)n2)cn1 [Example 98]
12 | 14 | 3 | Cc1nc(C#Cc2ccc(-c3c(C)cccc3C)nc2)cs1 [Example 36]
13 | 0.5 | 10 | Cc1nc(C#Cc2cnc(SC(C)(C)C)nc2)cs1 [Example 29, 2-(tert-butylthio)-5-[(2-methyl-1,3-thiazol-4-yl)ethynyl]pyrimidine]
14 | 8 | 9 | COc1cccc(-c2ccc(C#Cc3csc(C)n3)cn2)c1F [Example 51]
15 | 9 | 6 | CCC(C)Nc1ncc(C#Cc2csc(C)n2)cn1 (stereo not drawn) [Example 94]
16 | 7 | 1.5 | Cc1nc(C#Cc2ccc(N3C(C)CCC3C)nc2)cs1 (stereo not drawn) [Example 58]
17 | – | 6 | Cc1nc(C#Cc2cnc(-c3ccccc3F)nc2)cs1 [Example 106]
18 | 5 | 9 | CCC(CC)Nc1ccc(C#Cc2csc(C)n2)cn1 [Example 66]
19 | 1.5 | 4 | Cc1nc(C#Cc2cncc(Cl)c2)cs1 [Example 90]

The next lines start with the compound.

Row | Compound | IC50 [1] [nM] | Ki [2] [nM]
20 | Cc1nc(C#Cc2ccc(N3C4CCC3CC4)nc2)cs1 [Example 53] | 8 | 8
21 | Cc1nc(C#Cc2ccc(N3CCC(C)CC3)nc2)cs1 [Example 81] | 3 | 6
22 | Cc1nc(C#Cc2ccc(-c3cccc(F)c3)nc2)cs1 [Example 3, 2-(3-fluorophenyl)-5-[(2-methyl-1,3-thiazol-4-yl)ethynyl]pyridine] | 0.9 | 2.7
23 | Cc1nc(C#Cc2ccc(-c3ccc(F)cc3C)nc2)cs1 [Example 9, 2-(4-fluoro-2-methylphenyl)-5-[(2-methyl-1,3-thiazol-4-yl)ethynyl]pyridinium trifluoroacetate] | 1.1 | –
24 | Cc1nc(C#Cc2ccc(-c3cccc(C#N)c3)nc2)cs1 [Example 70] | 5 | 5
25 | Cc1nc(C#Cc2ccc(N3CCCC3C)nc2)cs1 (stereo not drawn) [Example 20, 2-(2-methylpyrrolidin-1-yl)-5-[(2-methyl-1,3-thiazol-4-yl)ethynyl]pyridine] | 1 | 1.4
26 | Cc1nc(C#Cc2cncc(Oc3cccnc3)c2)cs1 [Example 91] | 1 | 1
27 | Cc1ccc(F)c(-c2ccc(C#Cc3csc(C)n3)cn2)c1 [Example 54] | 8 | 1.5
28 | Cc1nc(C#Cc2cncc(N(C)c3cccnc3)c2)cs1 [Example 82] | 3 | 2
29 | Cc1nc(C#Cc2ccc(NC3CCC3)nc2)cs1 [Example 42] | 11 | 17
30 | Cc1nc(C#Cc2cncc(Nc3cccnc3)c2)cs1 [Example 41] | 11 | 5
31 | Cc1nc(C#Cc2cnc(N3CCCC(C)C3)nc2)cs1 (stereo not drawn) [Example 103] | 1.6 | 1.6
32 | Cc1cccc(-c2ccc(C#Cc3csc(C)n3)cn2)c1 [Example 52] | 8 | 2
33 | Cc1nc(C#Cc2cnc(C3CCCCC3)nc2)cs1 [Example 32, 2-cyclohexyl-5-[(2-methyl-1,3-thiazol-4-yl)ethynyl]pyrimidine] | 1 | 4.8
34 | Cc1nc(C#Cc2ccc(C3CCCC3)nc2)cs1 [Example 75] | 4 | 4
35 | COc1cc(F)ccc1-c1ccc(C#Cc2csc(C)n2)cn1 [Example 11, 2-(4-fluoro-2-methoxyphenyl)-5-[(2-methyl-1,3-thiazol-4-yl)ethynyl]pyridinium trifluoroacetate] | 1.3 | –
36 | COc1ccccc1-c1ccc(C#Cc2csc(C)n2)cn1 [Example 8, 2-(2-methoxyphenyl)-5-[(2-methyl-1,3-thiazol-4-yl)ethynyl]pyridine] | 1 | 0.9
37 | Cc1nc(C#Cc2cnc(-n3ccc4ccncc43)nc2)cs1 [Example 99] | 2.8 | 33
38 | Cc1nc(C#Cc2cnc(N3CCCCC3C)nc2)cs1 (stereo not drawn) [Example 96] | 5 | 5
39 | COc1ccc(C#N)cc1-c1ccc(C#Cc2csc(C)n2)cn1 [Example 37] | 14 | 10
40 | COc1c(F)cc(F)cc1-c1ccc(C#Cc2csc(C)n2)cn1 [Example 10, 2-(3,5-difluoro-2-methoxyphenyl)-5-[(2-methyl-1,3-thiazol-4-yl)ethynyl]pyridinium trifluoroacetate] | 0.7 | –
41 | Cc1nc(C#Cc2cnc(-c3cccc(C)c3C)nc2)cs1 [Example 16, 2-(2,3-dimethylphenyl)-5-[(2-methyl-1,3-thiazol-4-yl)ethynyl]pyrimidine] | 0.4 | 8.6
42 | Cc1ccc(C)c(-c2ccc(C#Cc3csc(C)n3)cn2)c1 [Example 38] | 13 | 8
43 | Cc1nc(C#Cc2cnc(-c3ccccc3Cl)nc2)cs1 [Example 15, 2-(2-chlorophenyl)-5-[(2-methyl-1,3-thiazol-4-yl)ethynyl]pyrimidine] | 1 | 2.6
44 | Cc1nc(C#Cc2ccc(-c3ccc(F)c(C)c3)nc2)cs1 [Example 49] | 9 | 5.5
45 | Cc1nc(C#Cc2ccc(-c3cccc(-n4cccn4)c3)nc2)cs1 [Example 87] | 2 | –
